Relative viability data for seven cell lines are collected here from the supplement of paper PMC10307832.

Common to all, as to test: relative viability (nuclei count vs DMSO), 5 days (fraction); higher = more cells survive
Compound in experiment [1]: CC1=CN=C(N=C1C2=CNC(=C2)C(=O)N[C@H](CO)C3=CC(=CC=C3)Cl)NC4=C(C=C(C=C4)F)Cl [VX-11e] + CC(=O)c1c(C)c2cnc(Nc3ccc(N4CCNCC4)cn3)nc2n(C2CCCC2)c1=O [Palbociclib] (partner 0.5 µM)
A digest of the protocol: (§1)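 Lung cancer cell lines, seeded in 1536-well plates, were treated the following day by pin tool with a single drug or with five library-drug doses (not always all listed) in √10 steps on top of a fixed anchor-drug dose. Cells were fixed and nuclei stained in one step after 5 days, and nuclei were counted. Relative viability is the nuclei count for treated wells divided by that for vehicle wells, reported as medians of duplicate plates.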

Compound in experiment [2]: CC1=CN=C(N=C1C2=CNC(=C2)C(=O)N[C@H](CO)C3=CC(=CC=C3)Cl)NC4=C(C=C(C=C4)F)Cl [VX-11e] + CS(=O)(=O)N1CCN(Cc2cc3nc(-c4cccc5[nH]ncc45)nc(N4CCOCC4)c3s2)CC1 [Pictilisib] (partner 1 µM)
A digest of the protocol: as §1

Compound in experiment [3]: CC1=CN=C(N=C1C2=CNC(=C2)C(=O)N[C@H](CO)C3=CC(=CC=C3)Cl)NC4=C(C=C(C=C4)F)Cl [VX-11e] + N=C(N)NC(=N)NCCc1ccccc1 [Phenformin] (partner 250 µM)
A digest of the protocol:
as §1

Compound in experiment [4]: CC1=CN=C(N=C1C2=CNC(=C2)C(=O)N[C@H](CO)C3=CC(=CC=C3)Cl)NC4=C(C=C(C=C4)F)Cl [VX-11e] + Nc1ncn([C@H]2C[C@H](O)[C@@H](CO)O2)c(=O)n1 [Decitabine] (partner 2 µM)
A digest of the protocol: as §1

Consider NCI-H1915, for which the relative viability came out at 0.546 in experiment [1] (first compound 0.04 µM); 0.465 in experiment [1] (first compound 0.1265 µM); 0.481 in experiment [1] (first compound 0.4 µM); 0.433 in experiment [1] (first compound 1.265 µM); 0.217 in experiment [1] (first compound 4 µM); 0.556 in experiment [2] (first compound 0.04 µM). Besides, the relative viability in experiment [2] (first compound 0.1265 µM) is 0.757; in experiment [2] (first compound 0.4 µM), 0.636; in experiment [2] (first compound 1.265 µM) it was 0.627; in experiment [2] (first compound 4 µM), 0.282; in experiment [3] (first compound 0.04 µM), 0.401; in experiment [3] (first compound 0.1265 µM), 0.343. Further, the relative viability came to 0.291 in experiment [3] (first compound 0.4 µM); 0.298 in experiment [3] (first compound 1.265 µM); 0.235 in experiment [3] (first compound 4 µM); 0.246 in experiment [4] (first compound 0.04 µM); 0.264 in experiment [4] (first compound 0.1265 µM); 0.25 in experiment [4] (first compound 0.4 µM). Further, the relative viability in experiment [4] (first compound 1.265 µM) turned out to be 0.264; in experiment [4] (first compound 4 µM) it was 0.238.
For NCI-H2087, the relative viability amounted to 0.203 in experiment [1] (first compound 0.04 µM); 0.244 in experiment [1] (first compound 0.1265 µM); 0.176 in experiment [1] (first compound 1.265 µM); 0.176 in experiment [1] (first compound 4 µM); 0.778 in experiment [2] (first compound 0.04 µM); 0.734 in experiment [2] (first compound 0.1265 µM). In addition, the relative viability in experiment [2] (first compound 0.4 µM) is 0.271; in experiment [2] (first compound 1.265 µM) it was 0.445; in experiment [2] (first compound 4 µM) it was 0.273; in experiment [3] (first compound 0.04 µM) it was 0.459; in experiment [3] (first compound 0.1265 µM), 0.462; in experiment [3] (first compound 1.265 µM), 0.393. For the same cell line, the relative viability in experiment [3] (first compound 4 µM) was 0.181; in experiment [4] (first compound 0.04 µM), 0.318; in experiment [4] (first compound 0.1265 µM), 0.295; in experiment [4] (first compound 1.265 µM) it was 0.182; in experiment [4] (first compound 4 µM), 0.158.
As to COR-L23, the relative viability in experiment [1] (first compound 0.04 µM) worked out at 0.376; in experiment [1] (first compound 0.1265 µM), 0.274; in experiment [1] (first compound 0.4 µM) it was 0.225; in experiment [1] (first compound 1.265 µM), 0.183; in experiment [1] (first compound 4 µM), 0.123; in experiment [2] (first compound 0.04 µM) it was 0.83. Also, the relative viability was found to be 0.72 in experiment [2] (first compound 0.1265 µM); 0.52 in experiment [2] (first compound 0.4 µM); 0.382 in experiment [2] (first compound 1.265 µM); 0.184 in experiment [2] (first compound 4 µM); 0.52 in experiment [3] (first compound 0.04 µM); 0.409 in experiment [3] (first compound 0.1265 µM). Moreover, the relative viability in experiment [3] (first compound 0.4 µM) worked out at 0.471; in experiment [3] (first compound 1.265 µM) it was 0.428; in experiment [3] (first compound 4 µM), 0.276; in experiment [4] (first compound 0.04 µM), 0.374; in experiment [4] (first compound 0.1265 µM), 0.417; in experiment [4] (first compound 0.4 µM) it was 0.396. Further, the relative viability in experiment [4] (first compound 1.265 µM) stood at 0.426; in experiment [4] (first compound 4 µM), 0.276.
For NCI-H1755, the relative viability came out at 0.429 in experiment [1] (first compound 0.04 µM); 0.404 in experiment [1] (first compound 0.1265 µM); 0.45 in experiment [1] (first compound 0.4 µM); 0.43 in experiment [1] (first compound 1.265 µM); 0.417 in experiment [1] (first compound 4 µM); 0.397 in experiment [2] (first compound 0.04 µM). The relative viability in experiment [2] (first compound 0.1265 µM) was found to be 0.337; in experiment [2] (first compound 0.4 µM), 0.152; in experiment [2] (first compound 1.265 µM) it was 0.357; in experiment [2] (first compound 4 µM), 0.16; in experiment [3] (first compound 0.04 µM), 0.694; in experiment [3] (first compound 0.1265 µM), 0.542. In addition, the relative viability was 0.248 in experiment [3] (first compound 0.4 µM); 0.594 in experiment [3] (first compound 1.265 µM); 0.51 in experiment [3] (first compound 4 µM); 0.7 in experiment [4] (first compound 0.04 µM); 0.736 in experiment [4] (first compound 0.1265 µM); 0.665 in experiment [4] (first compound 0.4 µM). Further, the relative viability was 0.716 in experiment [4] (first compound 1.265 µM) and 0.661 in experiment [4] (first compound 4 µM).
For the cell line NCI-H460, the relative viability was found to be 0.198 in experiment [1] (first compound 0.04 µM); 0.195 in experiment [1] (first compound 0.1265 µM); 0.146 in experiment [1] (first compound 0.4 µM); 0.0404 in experiment [1] (first compound 1.265 µM); 0.0179 in experiment [1] (first compound 4 µM); 0.306 in experiment [2] (first compound 0.04 µM). Moreover, the relative viability in experiment [2] (first compound 0.1265 µM) was found to be 0.27; in experiment [2] (first compound 0.4 µM) it was 0.141; in experiment [2] (first compound 1.265 µM), 0.173; in experiment [2] (first compound 4 µM) it was 0.1; in experiment [3] (first compound 0.04 µM), 0.588; in experiment [3] (first compound 0.1265 µM) it was 0.471. Further, the relative viability in experiment [3] (first compound 0.4 µM) was 0.127; in experiment [3] (first compound 1.265 µM), 0.174; in experiment [3] (first compound 4 µM) it was 0.0711; in experiment [4] (first compound 0.04 µM), 0.568; in experiment [4] (first compound 0.1265 µM), 0.43; in experiment [4] (first compound 0.4 µM), 0.165. Further, the relative viability in experiment [4] (first compound 1.265 µM) was 0.472; in experiment [4] (first compound 4 µM), 0.184.
On to COR-L 105, for which the relative viability in experiment [1] (first compound 0.04 µM) is 0.425; in experiment [1] (first compound 0.1265 µM), 0.414; in experiment [1] (first compound 0.4 µM) it was 0.396; in experiment [1] (first compound 1.265 µM) it was 0.386; in experiment [1] (first compound 4 µM), 0.363; in experiment [2] (first compound 0.04 µM), 0.341. Further, the relative viability in experiment [2] (first compound 0.1265 µM) was determined as 0.41; in experiment [2] (first compound 0.4 µM), 0.362; in experiment [2] (first compound 1.265 µM), 0.29; in experiment [2] (first compound 4 µM), 0.322; in experiment [3] (first compound 0.04 µM), 0.489; in experiment [3] (first compound 0.1265 µM) it was 0.487. The relative viability in experiment [3] (first compound 0.4 µM) was 0.391; in experiment [3] (first compound 1.265 µM) it was 0.366; in experiment [3] (first compound 4 µM), 0.227; in experiment [4] (first compound 0.04 µM), 0.685; in experiment [4] (first compound 0.1265 µM) it was 0.701; in experiment [4] (first compound 0.4 µM), 0.712. In addition, the values for the relative viability in experiment [4] (first compound 1.265 µM) and in experiment [4] (first compound 4 µM) were 0.705 and 0.333, respectively.
On to HCC-827, for which the relative viability in experiment [1] (first compound 0.04 µM) came out at 0.533; in experiment [1] (first compound 0.1265 µM), 0.46; in experiment [1] (first compound 0.4 µM), 0.461; in experiment [1] (first compound 1.265 µM), 0.541; in experiment [1] (first compound 4 µM), 0.301; in experiment [2] (first compound 0.04 µM), 1.03. The relative viability in experiment [2] (first compound 0.1265 µM) is 0.883; in experiment [2] (first compound 0.4 µM), 1.06; in experiment [2] (first compound 1.265 µM) it was 1.19; in experiment [2] (first compound 4 µM) it was 0.813; in experiment [3] (first compound 0.04 µM), 0.409; in experiment [3] (first compound 0.1265 µM) it was 0.413. Moreover, the relative viability is 0.369 in experiment [3] (first compound 0.4 µM); 0.479 in experiment [3] (first compound 1.265 µM); 0.375 in experiment [3] (first compound 4 µM); 0.266 in experiment [4] (first compound 0.04 µM); 0.32 in experiment [4] (first compound 0.1265 µM); 0.342 in experiment [4] (first compound 0.4 µM). In addition, the relative viability came to 0.431 in experiment [4] (first compound 1.265 µM) and 0.324 in experiment [4] (first compound 4 µM).
